Test system: SKOV3-Luc ovarian tumor cells
Format: cell-based, human

N.N.[Cl][Pt][Cl] [cisplatin]
IC50: 230 µM

Source: US11013784B2 (priority 2015, dated 2021)
